The text below walks through data of a melting point compilation (Tetko et al.; mined from patent text by program, amines drawn as free bases though some values may be those of a salt).

As usually defined, the melting point is the temperature, or range, at which the solid turns liquid.

As for `CC(C)CC1(CC(=O)NOCc2ccccc2)CC(=O)N(CCc2ccccc2)C1=O` (stereo not given), the melting point was in the range of 115 to 117 °C.

Compound `CC(C)CCCOC1CCC2C3C(=O)C=C4CC(O)CCC4(C)C3CCC12C` (stereo not given) displayed a melting point of 134 °C.

Compound `C[C@@H](N1CCN(c2ccc(OCC(F)(F)F)cc2)C1=O)[C@@]1(c2ccc(F)cc2F)CO1` yielded a melting point of 131 to 132 °C.

Turning to `NP(N)(=O)NCCCBr`, the melting point was in the range of 60 to 65 °C.

In turn, `Cc1nc(-c2cnc3[nH]cc(C(=O)N[C@@H](C(=O)N4CC(C#N)C4)C4CC4)c3n2)cn1-c1ccccc1` registered a melting point of 175 to 179 °C.

`CC(C)(C)c1csc(NC(=O)c2ccccc2)c1C#N` registered a melting point of 130 °C.

On to `CCCCCC(=O)c1c(CBr)n(C(=O)OC)c(=O)n1C(=O)OC`, for which the melting point lay within 71 to 73 °C.

`CC(=O)c1csc(-c2ccncc2)c1C`: the melting point was in the range of 87 to 87.5 °C.

On to `CC(C)c1ccc(N(Cc2ccc(F)cc2)C(=O)Nc2c(C(C)C)cccc2C(C)C)cc1`, for which the melting point is 80 °C.

For `O=C(OCc1ccc([N+](=O)[O-])cc1)OCc1ccc([N+](=O)[O-])cc1`, the melting point lay within 156 to 158 °C.

Take `c1ccc(-c2onc3ccc(Oc4ccc5noc(-c6ccccc6)c5c4)cc23)cc1`: the melting point lay within 158 to 165 °C.

The compound `CCOC(=O)c1ccc(Cn2cnc3cccnc32)cc1` came in with a melting point of 104 to 106 °C.

As to `CCCN(Cc1ccc(-c2ccccc2-c2nnn[nH]2)cc1)c1ncccc1C(=O)OC`, the melting point is 146 to 147 °C.

`O=C(NO)c1ccc(CNC(=O)c2[nH]c(-c3ccccc3)cc2-c2ccc(F)cc2)o1` registered a melting point of 152 to 153 °C.

`CC(C)(C)OC(=O)NCC(=O)Oc1cc2c(c3ccccc13)Nc1ccccc1S2`: the melting point is 175 °C.

As to `Cc1cccc(C)c1NC(=O)NCCCc1cc(-c2ccccc2)n(-c2ccc(S(N)(=O)=O)cc2)n1`, the melting point lay in the range of 138 to 141 °C.

As to `O=c1ccn([C@H]2[C@H](O)[C@H](O)[C@@H](CO)C23CC3)c(=O)[nH]1`, the melting point lay in the range of 114 to 116 °C.

`CCn1c(C(C)NS(=O)(=O)c2ccc(Cl)c(Cl)c2)cnc1Oc1ccc(C)cc1` (stereo not given) came in with a melting point of 142 to 144 °C.

With `CCCCCCCCCCN=C=S`, the melting point lay in the range of 71 to 72 °C.

Consider `CC(=O)NC(CO)CCc1ccc(Sc2cccc(OCc3ccccc3)c2)cc1Cl` (stereo not given), for which the melting point lay within 78 to 81 °C.

Regarding `CCS(=O)(=O)Nc1cc(-n2ncc(N(C)C)c(Cl)c2=O)c(F)cc1C#N`, the melting point came out at 206 °C.

Turning to `COC(=O)C1=C2Nc3ccccc3C23CCN(Cc2ccccc2)C3CC1` (stereo not given), the melting point fell in the range of 58 to 60 °C.

In turn, `N=C(NO)c1cc(C(F)(F)F)cc(-c2ccc(Cl)cc2)n1` had a melting point of 180 to 186 °C.

Consider `COc1ccc(C(=O)c2ccc(OCc3nc(-c4ccccc4)oc3C)cc2)c(OC2(C(=O)O)CCC2)c1`, for which the melting point is 199 to 201 °C.

The compound `CCOc1nn(CCOc2nn(CC)cc2CC(=O)O)cc1C(=O)NCc1ccc(Cl)cc1Cl` showed a melting point of 157 to 158 °C.

In turn, `CC1(C)COc2cc(F)c(F)cc2C(O)(c2ccccn2)C1` (stereo not given) returned a melting point of 93 °C.

For `CN1CC23CC(c4ccccc4C2C1=O)c1ccccc13` (stereo not given), the melting point lay within 141 to 146 °C.

For `N#Cc1ccc(CNC(=O)C2Cc3ccccc3N2S(=O)(=O)c2ccc(-c3cccc(C(F)(F)F)c3)cc2)cc1` (stereo not given), the melting point lay in the range of 80 to 89 °C.

For the compound `CCSc1nc(O)nn1CC`, the melting point was 65 to 68 °C.

`CCCCCCOC1CC(C)(C)N(c2nc(N(CCCC)C3CC(C)(C)NC(C)(C)C3)nc(N(CCCC)C3CC(C)(C)NC(C)(C)C3)n2)C(C)(C)C1` came in with a melting point of 135 to 137 °C.

Take `CCCCCCNC(=O)OCCCCCCCCCCCCNC(=O)OC1CCN(C(=O)O)CC1`: the melting point lay in the range of 98 to 100 °C.

`NC(=O)c1c(C(F)(F)F)ccc(Cl)c1Cl` displayed a melting point of 118 to 120 °C.

Regarding `O=C1c2c(O)cccc2C(SCC(O)CO)c2cccc(O)c21` (stereo not given), the melting point was in the range of 154 to 155 °C.

Turning to `COc1ccc(C(=CC(=O)N2CCOCC2)c2ccc(-c3ccccc3)cc2)cc1OC`, the melting point lay in the range of 127 to 128 °C.

On to `CCCc1ncc(CCCCC(=O)O)s1`, for which the melting point turned out to be 124 °C.

In turn, `COc1cccc(N(CC(=O)OC(C)(C)C)C(=O)CNC(=O)Nc2cccc(C)c2)c1` returned a melting point of 60 °C.

For `NNC(=O)c1[nH]cc(OCc2ccccc2)c(=O)c1Br`, the melting point amounted to 184 °C.

In turn, `CCC(=O)Nc1ccc(CN2C(=O)[C@H]3CCC[C@H]3N(C(=O)CN3C(=O)c4ccccc4C3=O)c3ccccc32)cc1` (relative stereo) displayed a melting point of 286 °C.

For the compound `CCc1nc(OC)c(NC(=O)N2CCN(c3cc(OC)cc(OC)c3)CC2)cc1C(=O)Nc1cc(CO)cc(Nc2c3ccccc3nc3ccccc23)c1`, the melting point is 170 to 172 °C.

`COc1cc(C=CC(=O)c2ccc(N(C)C)cc2)cc(OC)c1` had a melting point of 155 to 156 °C.

For `CCCCCCc1ccc(/C(Cl)=C/c2ccc(Br)cc2)cc1`, the melting point stood at 52 °C.

As to `O=P1(c2ccccc2)OCC2(CO1)COP(=O)(c1ccccc1)OC2` (stereo not given), the melting point was 264 to 265 °C.

Turning to `N[C@@H](CN1CCC(=C2c3ccccc3CCc3ccccc32)CC1)C(=O)O`, the melting point lay within 150 to 151 °C.

Regarding `NCCc1ccc(CCC(=O)O)cc1`, the melting point lay within 270 to 272 °C.

`CC(C)(C)c1cc2c(c(C(C)(C)C)c1)OC(C(F)(F)F)C(C(=O)O)=C2` (stereo not given) had a melting point of 172 to 175 °C.

The compound `CCOC(=O)c1cc(=O)c(-c2ccc(OC)cc2)co1` yielded a melting point of 121 to 123 °C.

`N#CC1(N)CCC2Cc3ccccc3CC2C1` (stereo not given) registered a melting point of 128 °C.

As for `CC(=O)NC(c1ccc(F)cc1)(c1cc2c3c(c1)c(-c1cccc(Cl)c1)cc(=O)n3CC2)c1nncn1C` (stereo not given), the melting point was 196 °C.

On to `CC(C)(C)c1cc(C(C)(CC(=O)NN)c2cc(C(C)(C)C)c(O)c(C(C)(C)C)c2)cc(C(C)(C)C)c1O`, for which the melting point turned out to be 172 °C.

Regarding `CC(=Cc1cccc(F)c1)C(=O)O`, the melting point lay in the range of 95 to 97 °C.

Compound `C[C@H](O)C#Cc1cc(CN2CCOCC2)cc2c(=O)c(C(=O)NCc3ccc(Cl)cc3)cn(C)c12` had a melting point of 158 to 161 °C.

In turn, `CCOC(=O)c1cc(OC)c2c(OC(C)C)ccc(Br)c2c1` returned a melting point of 62 °C.

`C=CCN1CCc2cc(OC)c(O)cc2C1Cc1ccc(OC)c(OC)c1` (single isomer, unassigned; (+)) had a melting point of 108 to 112 °C.

Regarding `COC(=O)c1sc2cncc(Oc3ccc(Cl)cc3)c2c1N`, the melting point was 194 to 196 °C.

As to `COc1cc(NC(C)CCCN2C(=O)c3ccccc3C2=O)c2ncccc2c1Oc1ccc(Cl)cc1` (stereo not given), the melting point lay within 75 to 77 °C.

Consider `COc1ccc2nc(-c3ccc(OC)c(F)c3)cc(Cl)c2c1`, for which the melting point fell in the range of 112 to 116 °C.

For the compound `N#Cc1cnc2c(oc3ccccc32)c1Cl`, the melting point is 229 to 231 °C.

In turn, `O=C(NC=CCc1cn(C2CC(O)C(CO)O2)c(=O)[nH]c1=O)C(F)(F)F` (stereo not given) displayed a melting point of 183 to 184 °C.

`OC1(c2ccc(Cl)c(C(F)(F)F)c2)CCN(CCCc2nnc3n2CCCCC3)CC1` displayed a melting point of 151 °C.

Turning to `CCCCCCCCCCCCCCCC(=O)NCCCC[C@H](N)C(=O)O`, the melting point fell in the range of 240 to 245 °C.
